The values that follow come from US6703536B2, “Disposable absorbent article having a skin care composition containing an enzyme inhibitor” (The Procter & Gamble Company, priority 1998, dated 2004).

B1: Soybean trypsin inhibitor: plant-derived trypsin inhibitor (protein, UniProt P01070 25-205, looked up)
Trypsin inhibitor A: DFVLDNEGNPLENGGTYYILSDITAFGGIRAAPTGNERCPLTVVQSRNELDKGIGTIISSPYRIRFIAEGHPLSLKFDSFAVIMLCVGIPTEWSVVEDLPEGPAVKIGENKDAMDGWFRLERVSDDEFNNYKLVFCPQQAEDDKCGDIGISIDHDDGTRRLVVSKNKPLVVQFQKLDKESL

Square brackets hold non-standard residues; d marks the D form. Peptide text beside a SMILES is read from it. * marks the point of attachment. Sta = CC(C)C[C@H](N)[C@@H](O)CC(=O)O; Isovaleryl = CC(C)CC(=O)* Where only a bound is given, the exact number is not on record here.

For this assay, the target named is protease activity in feces. The assay can be described thus: General Fecal Enzymes Method (casein-resorufin cleavage). The following applies: fecal suspension, casein-resorufin substrate, pH 7.8, 37° C. for 60 minutes. The assay is classed as biochemical, infant. The source says:
Pooled infant feces (at least five different samples) are collected in a manner to keep them free of urine and contamination and mixed with water to obtain a weight by weight (w/w) mixture (e.g., 1:50 w/w). This mixture is then mixed thoroughly to obtain a homogeneous suspension by homogenization or sonication. […] (Also, to ensure complete linearity the final absorbance should never exceed 1.5 OD405 units). If the activity of the pooled infant feces is outside this range, it is not possible to accurately determine IC50 values for putative protease inhibitors. However, the range of enzyme activity may be adjusted by increasing or decreasing the dilution factor accordingly for each enzyme. If this is not possible, a different group of subjects should be used to obtain the sample pool.
The general method described above for obtaining a sample of feces suitable for use in Specific Fecal Enzyme Methods can be easily adapted by one skilled in the art to obtain appropriate samples of feces suitable for use in the General Fecal Enzymes Method listed below without undue experimentation.
To test the efficacy of protease inhibitors against the protease activity in feces, 50 μL of inhibitor and 50 μL of fecal suspension are added to a 1.5 mL microcentrifuge tube. The microcentrifuge tube is mixed by inversion and incubated at 25° C. for 45 minutes. Then, 50 μL of protease buffer (200 mM TRIS buffer containing 20 mM CaCl2, pH 7.8) is added to the microcentrifuge tube. The microcentrifuge tube is again mixed by inversion and incubated at 25° C. for 45 minutes. […] The microcentrifuge tube is again mixed by inversion and incubated at 37° C. for 60 minutes for the substrate cleavage reaction to take place. Then, 480 μL of trichloroacetic acid (5% w/v) is added to stop the reaction and precipitate any unreacted casein-resorufin. The microcentrifuge tube is mixed by inversion incubated at 37° C. for 15 minutes. […] Then, 400 μL of the supernatant is added to 600 μL of assay buffer (0.5 M TRIS, pH 8.8) in a cuvette. […] The same procedure is repeated without the putative inhibitor. […] Before the start of the reaction, A and Ai are nearly zero. […] The rates, vi and v, and the inhibitor concentration [I] are used to calculate IC50 according to the equation expressed above.
By IC50 is commonly meant the midpoint of a concentration-inhibition curve. A lower IC50 goes with greater potency in that assay. The molecule `CC(C)C[C@H](NC(=O)[C@@H](NC(=O)N[C@@H](Cc1ccccc1)C(=O)O)[C@@H]1CCN=C(N)N1)C(=O)N[C@H](C=O)Cc1ccccc1` [Chymostatin] came in with an IC50 of 64 µM.

As to `CC(=O)N[C@@H](CC(C)C)C(=O)N[C@@H](CC(C)C)C(=O)N[C@H](C=O)CCCNC(=N)N` [Leupeptin], the concentration for half-maximal inhibition (IC50) is above 320 µM.

Regarding `CC(C)CC(=O)N[C@H](C(=O)N[C@H](C(=O)N[C@@H](CC(C)C)[C@@H](O)CC(=O)N[C@@H](C)C(=O)N[C@@H](CC(C)C)[C@@H](O)CC(=O)O)C(C)C)C(C)C` [Pepstatin A] (Isovaleryl-VV[Sta]A[Sta]-OH), the IC50 was above 32 µM.

Regarding B1, the midpoint of inhibition, the IC50, lay at 4.9 µM.
